In the NIST ThermoML archive (doi:10.1016/j.jct.2016.07.040):

Conditions: Crystal; for vapor or sublimation pressure: Calculated from knudsen effusion weight loss

[Np+4].[O-2].[O-2] [neptunium(IV) oxide]
Conditions | mass density [kg/m3]
295 K, 101.33 kPa, X-ray diffraction | 11140

Conditions | vapor or sublimation pressure [kPa]
2054.9 K | 3.295e-05
2056.2 K | 3.366e-05
2057.9 K | 3.51e-05
2060.1 K | 3.662e-05
2062.3 K | 3.796e-05
2064.8 K | 3.874e-05
2067.1 K | 4.025e-05
2069.1 K | 4.246e-05
2071.4 K | 4.393e-05
2073.9 K | 4.623e-05
2076.6 K | 4.712e-05
2078.6 K | 4.956e-05
2081.3 K | 5.123e-05
2083.9 K | 5.383e-05
2086.1 K | 5.495e-05
2088.4 K | 5.784e-05
2090.9 K | 5.955e-05
2093.2 K | 6.187e-05
2095.7 K | 6.433e-05
2098.6 K | 6.692e-05
2100.8 K | 6.877e-05
2103.4 K | 7.176e-05
2105.9 K | 7.462e-05
2108.1 K | 7.729e-05
2111.2 K | 8.054e-05
2113.1 K | 8.434e-05
2115.9 K | 8.748e-05
2118.1 K | 9.035e-05
2120.3 K | 9.314e-05
2122.9 K | 9.644e-05
2125.2 K | 9.94e-05
2127.9 K | 0.0001045
2130.5 K | 0.0001097
2132.7 K | 0.0001123
2135.3 K | 0.0001157
2137.4 K | 0.0001217
2139.9 K | 0.0001239
2142.7 K | 0.0001288
2145.2 K | 0.0001332
2147.5 K | 0.0001386
2149.8 K | 0.0001358
2150.2 K | 0.0001442
2151.3 K | 0.0001375
2152.2 K | 0.0001394
2152.6 K | 0.0001498
2152.8 K | 0.0001433
2154.4 K | 0.0001447
2154.9 K | 0.0001542
2155.9 K | 0.0001583
2156 K | 0.0001482
2157.3 K | 0.0001517
2158.4 K | 0.0001543
2160.3 K | 0.0001598
2161.7 K | 0.0001597
2162.9 K | 0.0001642
2164.5 K | 0.0001713
2166.2 K | 0.0001748
2167.4 K | 0.000178
2168.5 K | 0.0001787
2170.6 K | 0.0001874
2172.1 K | 0.0001888
2173.8 K | 0.0001909
2175.3 K | 0.0001994
2176.6 K | 0.0002036
2178.6 K | 0.0002068
2179.8 K | 0.0002135
2181 K | 0.0002199
2183.2 K | 0.0002228
2184.5 K | 0.0002278
2186.2 K | 0.0002338
2187.7 K | 0.0002364
2189.2 K | 0.0002417
2191.4 K | 0.0002525
2193.1 K | 0.0002543
2194.3 K | 0.0002622
2196 K | 0.0002656
2197.8 K | 0.0002726
2199.7 K | 0.0002771
2200.8 K | 0.0002867
2202.4 K | 0.0002946
2204.7 K | 0.0002992
2206.6 K | 0.0003045
2207.4 K | 0.0003104
2209.3 K | 0.0003162
2211.2 K | 0.0003286
2212.7 K | 0.0003354
2214.4 K | 0.0003408
2216.4 K | 0.0003502
2218.1 K | 0.0003597
2218.9 K | 0.0003644
2220.7 K | 0.0003741
2222.9 K | 0.0003833
2224.6 K | 0.0003931
2225.9 K | 0.0004013
2227.7 K | 0.000407
2229.2 K | 0.0004206
2231 K | 0.0004254
2232.9 K | 0.0004344
2233.8 K | 0.0004466
2235.8 K | 0.0004515
2237.8 K | 0.0004628
2239.3 K | 0.0004711
2240.7 K | 0.0004792
2242.2 K | 0.0004974
2243.7 K | 0.0005095
2245.8 K | 0.0005148
2247.3 K | 0.0005247
2249.2 K | 0.00054
2250.6 K | 0.0005507
2252.1 K | 0.0005593
2254.2 K | 0.0005708
2255.6 K | 0.0005856
2257.4 K | 0.0005944
2258.3 K | 0.0006052
2258.7 K | 0.0006098
2259.2 K | 0.0006132
